This note sets out measurements from ChEMBL document CHEMBL1201862, “PubChem BioAssay data set” (2004).

Assay [1] can be described thus: CellTiter-Glo luminescent dose response of DLD-1 viability loss (AID 1117352). It is filed as functional. A general note: Cellular ATP, detected with luciferase, serves as a proxy for viable cell number.
A short description of assay [2]: cytotoxicity toward HT-29 cells – cell-based, CellTiter-Glo luminescence, IC50, dose response (AID 1117330). It is filed as functional.
Assay [3] in a line: Luminescence-based dose response cell-based high throughput screening assay for cytotoxic compounds using the IEC-6 intestinal epithelial cell line. [Related pubchem assays: 1858 (Summary AID.), 1825 (Counterscreen.), 1907 (Confirmation screen.)]. The assay is classed as functional. (A counterscreen serves to expose hits that act by an unwanted route or on another target.)
Another assay relates to HEK293. In words: inhibitors of LMP1-driven NF-kB reporter, dose response, cell-based, HEK293, luciferase, cherry-pick (AID 588343). It is filed as functional. To be noted: Homo sapiens.
Assay [4] is described as follows: Luminescence Cell-Based Dose Retest to Confirm Inhibitors of Cancer Stem Cells. [Related pubchem assays (depositor defined):AID2717, AID2721]. It is filed as functional. As to conditions: Homo sapiens.
Assay [5] is described as follows: Concentration-dependent survival of SW480 colon cancer line, luminescence detection with CellTiter-Glo, half-maximal inhibitory concentration (AID 1117338). It is filed as functional.
Assay [6] in a line: cytotoxicity toward Colo320 cells – cell-based, CellTiter-Glo luminescence, IC50, dose response (AID 1117334). The assay is classed as functional. As to conditions: COLO 320.
A short description of assay [7]: cytotoxicity in HEK-293T cells, dose response, cytotoxicity control for BCR NF-kB inhibitor project, luminescence, B-cell screen hits (AID 489021).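 Further: HEK-293T cells carrying an NF-kB luciferase reporter; cells exposed to compound for about 14 hours before viability readout.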 It is filed as functional, cell-based.
Assay [8] has as its target Latent membrane protein 1 (Human herpesvirus 4 (strain B95-8), UniProt P03230). In words: TES1-eGFP NF-kB reporter inhibition versus Tet-On dsRED, dose response, selectivity assay for LMP1 NF-kB inhibitor project, imaging, HEK293T, dual-color eGFP/dsRED, cherry-picks (AID 588398). The assay is classed as functional, cell-based.
Assay [9] is described as follows: SNU-C1 cell viability reduction, dose response, CellTiter-Glo luminescence (AID 1117323). The assay is classed as functional, cell-based.
A further assay addresses T1, Exodeoxyribonuclease V (Escherichia coli (strain K12), UniProt P04993+P07648+P08394).
T1 sequence (P04993 whole entry): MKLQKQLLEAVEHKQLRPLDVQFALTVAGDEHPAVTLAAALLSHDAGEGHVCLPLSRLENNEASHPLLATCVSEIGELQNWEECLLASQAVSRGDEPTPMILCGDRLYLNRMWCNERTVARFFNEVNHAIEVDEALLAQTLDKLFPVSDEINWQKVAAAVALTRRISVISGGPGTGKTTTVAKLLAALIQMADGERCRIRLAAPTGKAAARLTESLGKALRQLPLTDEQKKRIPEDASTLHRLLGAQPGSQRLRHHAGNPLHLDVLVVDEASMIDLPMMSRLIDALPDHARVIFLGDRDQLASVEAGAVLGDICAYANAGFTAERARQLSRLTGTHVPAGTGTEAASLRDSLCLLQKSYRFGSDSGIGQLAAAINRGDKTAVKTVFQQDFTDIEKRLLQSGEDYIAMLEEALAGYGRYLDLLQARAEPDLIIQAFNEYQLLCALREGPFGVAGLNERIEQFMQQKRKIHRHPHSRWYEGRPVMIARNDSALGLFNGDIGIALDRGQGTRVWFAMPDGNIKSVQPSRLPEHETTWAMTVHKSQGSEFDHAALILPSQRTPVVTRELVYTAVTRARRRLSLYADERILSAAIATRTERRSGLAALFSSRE
T1 sequence (P07648 whole entry): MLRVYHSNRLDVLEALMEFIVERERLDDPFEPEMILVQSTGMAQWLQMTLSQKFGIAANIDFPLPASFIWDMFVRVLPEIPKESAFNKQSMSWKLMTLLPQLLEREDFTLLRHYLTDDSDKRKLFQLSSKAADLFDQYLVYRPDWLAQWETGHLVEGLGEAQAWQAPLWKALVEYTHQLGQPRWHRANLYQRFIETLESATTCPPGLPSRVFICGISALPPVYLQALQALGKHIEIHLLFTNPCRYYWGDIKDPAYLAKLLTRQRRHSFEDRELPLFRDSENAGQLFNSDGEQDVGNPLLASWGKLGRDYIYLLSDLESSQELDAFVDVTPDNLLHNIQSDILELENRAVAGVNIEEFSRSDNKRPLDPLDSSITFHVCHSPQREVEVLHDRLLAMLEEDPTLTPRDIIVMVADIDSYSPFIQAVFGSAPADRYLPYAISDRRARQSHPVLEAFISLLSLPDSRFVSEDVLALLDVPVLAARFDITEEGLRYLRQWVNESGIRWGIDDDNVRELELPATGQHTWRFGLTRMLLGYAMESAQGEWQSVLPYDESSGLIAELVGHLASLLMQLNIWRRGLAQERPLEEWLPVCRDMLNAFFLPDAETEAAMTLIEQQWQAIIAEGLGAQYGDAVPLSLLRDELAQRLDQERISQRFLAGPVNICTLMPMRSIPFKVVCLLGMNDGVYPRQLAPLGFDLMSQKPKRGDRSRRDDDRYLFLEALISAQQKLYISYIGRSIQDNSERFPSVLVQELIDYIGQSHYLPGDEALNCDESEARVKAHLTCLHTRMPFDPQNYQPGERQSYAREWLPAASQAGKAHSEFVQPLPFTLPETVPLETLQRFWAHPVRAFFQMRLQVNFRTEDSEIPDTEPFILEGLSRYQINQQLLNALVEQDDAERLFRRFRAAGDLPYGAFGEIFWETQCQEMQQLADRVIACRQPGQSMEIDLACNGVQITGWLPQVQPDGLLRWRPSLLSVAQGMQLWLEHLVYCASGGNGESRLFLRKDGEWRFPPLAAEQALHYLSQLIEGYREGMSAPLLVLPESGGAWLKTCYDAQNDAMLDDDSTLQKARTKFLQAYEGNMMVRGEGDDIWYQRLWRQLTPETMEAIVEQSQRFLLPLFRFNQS
T1 sequence (P08394 whole entry): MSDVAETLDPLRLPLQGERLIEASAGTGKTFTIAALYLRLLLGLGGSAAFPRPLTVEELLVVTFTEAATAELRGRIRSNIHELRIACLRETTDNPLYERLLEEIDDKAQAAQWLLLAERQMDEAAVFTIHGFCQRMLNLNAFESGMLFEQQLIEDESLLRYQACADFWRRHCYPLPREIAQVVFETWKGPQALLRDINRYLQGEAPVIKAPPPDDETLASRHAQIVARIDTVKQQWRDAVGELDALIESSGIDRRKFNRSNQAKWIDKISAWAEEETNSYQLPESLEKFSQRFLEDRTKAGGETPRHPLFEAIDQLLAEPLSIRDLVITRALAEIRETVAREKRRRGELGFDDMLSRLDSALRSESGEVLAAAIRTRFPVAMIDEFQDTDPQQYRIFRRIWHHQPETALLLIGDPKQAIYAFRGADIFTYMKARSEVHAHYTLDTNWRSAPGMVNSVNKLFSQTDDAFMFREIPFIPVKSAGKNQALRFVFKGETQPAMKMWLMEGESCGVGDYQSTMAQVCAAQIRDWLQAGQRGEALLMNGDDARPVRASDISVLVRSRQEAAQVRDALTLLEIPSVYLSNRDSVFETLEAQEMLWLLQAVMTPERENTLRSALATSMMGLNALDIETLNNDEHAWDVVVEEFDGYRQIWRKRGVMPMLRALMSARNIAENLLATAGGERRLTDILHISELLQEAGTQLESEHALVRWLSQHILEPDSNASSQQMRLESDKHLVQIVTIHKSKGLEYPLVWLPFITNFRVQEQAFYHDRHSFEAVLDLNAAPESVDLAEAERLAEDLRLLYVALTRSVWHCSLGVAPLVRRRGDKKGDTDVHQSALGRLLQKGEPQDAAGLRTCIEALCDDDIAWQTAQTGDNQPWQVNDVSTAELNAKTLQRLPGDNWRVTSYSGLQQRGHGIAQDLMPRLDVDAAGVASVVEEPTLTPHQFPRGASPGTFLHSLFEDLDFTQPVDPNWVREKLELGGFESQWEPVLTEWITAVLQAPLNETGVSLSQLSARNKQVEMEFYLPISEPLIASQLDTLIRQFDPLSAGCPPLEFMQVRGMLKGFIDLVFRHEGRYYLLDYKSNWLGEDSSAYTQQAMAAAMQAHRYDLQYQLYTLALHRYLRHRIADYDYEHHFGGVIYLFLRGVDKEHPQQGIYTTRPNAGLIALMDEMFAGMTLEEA
Description: E. coli RecBCD inhibitors, dose response, counter-screen for AddAB inhibitor project, absorbance, V66 E. coli, mutant T4 phage (AID 492957). The assay is classed as functional, cell-based, Escherichia coli str. K-12 substr. MG1655.

Assay [10] concerns the target T2, CAAX prenyl protease 2 (Saccharomyces cerevisiae S288c, UniProt Q03530).
T2 sequence (Q03530 whole entry): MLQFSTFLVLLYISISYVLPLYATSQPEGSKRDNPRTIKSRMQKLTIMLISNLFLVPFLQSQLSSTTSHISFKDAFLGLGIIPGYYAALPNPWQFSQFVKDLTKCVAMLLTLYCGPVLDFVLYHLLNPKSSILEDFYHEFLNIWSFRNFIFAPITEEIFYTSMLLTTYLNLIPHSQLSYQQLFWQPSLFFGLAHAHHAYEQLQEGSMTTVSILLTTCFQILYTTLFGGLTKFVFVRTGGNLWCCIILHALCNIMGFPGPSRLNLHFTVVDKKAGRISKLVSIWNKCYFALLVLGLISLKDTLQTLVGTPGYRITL
In words: yeast Rce1 CaaX protease inhibitors, dose response, biochemical, plate reader, dry powder retest (AID 588851).

In assay [11] the target is Disintegrin and metalloproteinase domain-containing protein 17 (Homo sapiens, UniProt P78536). In words: ADAM17 protease inhibitors, dose response, counter-screen for ADAM10 exosite inhibitor project, biochemical, quenched FRET substrate (AID 743253).
Assay [12] is described as follows: ADAM10 inhibitors, peptide cleavage, dose response, biochemical, QFRET (AID 743254).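 Further: ADAM10 enzyme with the DM2 quenched FRET peptide as substrate; EDANS fluorescence gain as the protease cuts the substrate; inhibitor potency against ADAM10 proteolytic activity.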
Assay [13] deals with T2, CAAX prenyl protease 2. It is filed as biochemical.
In assay [14] the test system is INS1. Description: protection from cytokine-induced mitochondrial depolarization, dose response, cell-based, INS-1E, JC-1 fluorescence ratio, dry powder (AID 488931). The assay is classed as functional. As to conditions: Rattus norvegicus.
For assay [15], the system named is INS1. In words: inhibitors of cytokine-induced nitrite release, dose response, cell-based, Griess absorbance, INS-1E, dry powder, set 2 (AID 488868). It is filed as functional. To be noted: Rattus norvegicus. A general note: Nitrite, measured by Griess reagent, commonly stands in for NO production.
The nature of assay [16]: inhibitors of cytokine-induced nitrite release, dose response, cell-based, Griess absorbance, INS-1E, dry powder, set 3 (AID 488870). The assay is classed as functional. As to conditions: Rattus norvegicus.
Assay [17] concerns INS1. Description: protection of INS-1E cells from cytokine death, dose response, ATP luminescence, dry powder (AID 488844). It is filed as functional, cell-based. To be noted: Rattus norvegicus.
Assay [18] deals with INS1. Description: inhibitors of cytokine-induced nitrite release, dose response, cell-based, Griess absorbance, INS-1E, dry powder (AID 488866). The assay is classed as functional. To be noted: Rattus norvegicus.
The test system of assay [19] is INS1. Description: caspase-3/7 inhibition in cytokine-treated INS-1E, dose response, beta-cell apoptosis inhibitor project, cell-based, caspase luminescence, dry powder (AID 488848). The assay is classed as functional. To be noted: Rattus norvegicus.

Values joined by “and” are separate entries in the source; they are usually repeats but may differ in a detail not shown here. Identical values can stand only once. Active and inactive are the calls of the source.

Chain of Latent membrane protein 1 (P03230 whole entry): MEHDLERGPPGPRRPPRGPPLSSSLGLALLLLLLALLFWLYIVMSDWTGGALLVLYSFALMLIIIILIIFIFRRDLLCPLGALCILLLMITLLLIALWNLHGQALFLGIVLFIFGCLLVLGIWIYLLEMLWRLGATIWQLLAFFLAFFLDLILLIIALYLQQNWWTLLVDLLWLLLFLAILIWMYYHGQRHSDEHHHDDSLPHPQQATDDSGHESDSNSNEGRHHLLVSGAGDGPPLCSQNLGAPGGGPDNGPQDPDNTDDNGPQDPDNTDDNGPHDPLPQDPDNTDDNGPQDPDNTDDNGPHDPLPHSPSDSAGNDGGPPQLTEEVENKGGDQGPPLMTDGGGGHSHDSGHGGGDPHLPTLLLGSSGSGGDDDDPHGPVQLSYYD
Chain of Disintegrin and metalloproteinase domain-containing protein 17 (P78536 whole entry, the tested form may be a part): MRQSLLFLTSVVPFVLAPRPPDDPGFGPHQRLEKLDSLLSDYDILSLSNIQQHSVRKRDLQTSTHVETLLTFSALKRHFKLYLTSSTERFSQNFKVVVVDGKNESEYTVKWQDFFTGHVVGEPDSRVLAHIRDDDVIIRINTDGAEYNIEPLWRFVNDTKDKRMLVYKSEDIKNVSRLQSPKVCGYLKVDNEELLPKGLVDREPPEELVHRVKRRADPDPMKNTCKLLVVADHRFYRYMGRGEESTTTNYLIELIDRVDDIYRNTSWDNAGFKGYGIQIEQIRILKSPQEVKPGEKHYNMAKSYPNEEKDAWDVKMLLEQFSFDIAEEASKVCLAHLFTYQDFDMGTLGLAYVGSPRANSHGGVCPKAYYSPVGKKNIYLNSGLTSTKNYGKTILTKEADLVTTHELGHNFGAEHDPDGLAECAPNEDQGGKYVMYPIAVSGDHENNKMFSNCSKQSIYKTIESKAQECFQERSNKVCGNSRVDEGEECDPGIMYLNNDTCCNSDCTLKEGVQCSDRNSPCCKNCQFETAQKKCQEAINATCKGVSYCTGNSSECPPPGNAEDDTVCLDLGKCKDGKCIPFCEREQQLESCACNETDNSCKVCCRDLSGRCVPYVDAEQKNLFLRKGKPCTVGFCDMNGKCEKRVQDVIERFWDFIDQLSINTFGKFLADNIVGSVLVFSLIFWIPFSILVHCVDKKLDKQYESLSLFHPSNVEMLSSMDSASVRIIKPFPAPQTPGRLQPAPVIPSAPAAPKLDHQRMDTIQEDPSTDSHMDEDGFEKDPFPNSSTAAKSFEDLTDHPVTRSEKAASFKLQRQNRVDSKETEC

Consider `O=c1[nH]c(=O)n([C@H]2C[C@H](O)[C@@H](CO)O2)cc1C(F)(F)F` [TRIFLURIDINE], for which the IC50 in assay [1] is > 20 µM (inactive); in [2], > 20 µM (inactive); in assay [3], 1.75 µM (active); in [5], > 20 µM (inactive); in [6], > 20 µM (inactive); in [7] it was > 80 µM (inactive). The IC50 is > 20 µM (inactive) in [9]; > 118 µM (inactive) and > 119 µM (inactive) on Exodeoxyribonuclease V. In addition, the values for the half-maximal activity concentration (AC50) (with HEK293; in assay [4]; in assay [8]) were 3.28 µM (active), 1.66 µM (active) and 1.13 µM (active), respectively.

`CC(C)c1c(C(=O)N/N=C/c2cccc3ccccc23)nnn1-c1nonc1N`: the AC50 was 3.25 µM (active) on CAAX prenyl protease 2 [10] and 0.117 µM (active) on CAAX prenyl protease 2 [13]. In addition, the IC50 in [11] and in [12] was > 69.5 µM (inactive) throughout.

For the compound `COc1ccc(S(=O)(=O)N(C)C[C@@H]2Oc3c(NC(=O)Nc4cccc5ccccc45)cccc3C(=O)N([C@@H](C)CO)C[C@H]2C)cc1C`, the AC50 in the assay with INS1 [14] is 4.91 µM (active); with INS1 [15] it was 25.1 µM (active); in assay [16] it was 34.5 µM (active); in the assay on INS1 [17] it was 0.436 µM (active); in the assay on INS1 [18] it was 45.2 µM (active); with INS1 [19], 0.414 µM (active).

As a reminder, the IC50 is the midpoint of a concentration-inhibition curve. The AC50 is the concentration giving half of the maximal activity seen.
